We go through one compound from patent publication US20090312294A1, “Method and Agent for Reducing Weight, Accelerating Lipid Catabolism, and/or Restricting Calories” (priority 2006, published 2009).

The nature of this assay: Clinical study on the action of the formulations for weight reduction. The format is in vivo, human. Particulars: body weight per patient; postmenopausal women aged 52-59; 100 mg chrysin daily after lunch for 5 days; each table row is one patient. The procedure:
Eight women between 52 and 59 in age who were hormonally in postmenopause and despite an activity program and targeted nutrition observed no change in weight, took 100 mg of chrysin for 5 days. This dose is under the dosages of any formulations which are offered as food supplements. After a further 5 days, the patients were advised, in order to excite the conversion of peripheral […], to take additionally 100 mg of cholic acid as supplement. Intake proceeded in each case at midday after lunch.

Where “and” joins values, the source holds several entries; their conditions need not be identical. Equal values may be shown once.

Take `O=c1cc(-c2ccccc2)oc2cc(O)cc(O)c12` [chrysin]: the “kg after 5 days of 100 mg of chrysin” value is 73.5 kg and 69.5 kg (2×) and 65 kg and 71 kg and 78 kg and 70.2 kg and 67 kg.
